Assay results taken from patent publication US12599672B2, “KRAS proteolysis targeting chimeras” (PAQ Therapeutics Inc., priority 2023, dated 2026).

Legend:
Assay type in all cases: cell-based
KRAS G12D = target: T1, KRAS G12D (Homo sapiens, UniProt P01116, G12D); test: KRAS G12D HiBit assay; settings: AsPc-1-KRAS (G12D)-HiBit-KI cell, compound treatment for 24 hours, absolute DC50; class symbols
T1 construct: AsPc-1-KRAS (G12D)-HiBit-KI cell (Pharmaron); host or cells: AsPc-1-KRAS (G12D)-HiBit-KI cells (HiBiT knock-in at the endogenous KRAS locus)
T1 sequence (P01116 1-188 isoform P01116-2 G12D): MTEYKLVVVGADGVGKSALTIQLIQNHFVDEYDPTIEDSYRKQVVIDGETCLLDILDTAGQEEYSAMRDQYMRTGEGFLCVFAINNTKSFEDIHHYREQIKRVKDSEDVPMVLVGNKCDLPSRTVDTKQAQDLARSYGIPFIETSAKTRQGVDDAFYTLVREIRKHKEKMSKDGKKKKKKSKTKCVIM
Summary of the method: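 HiBiT luminescence, detected by adding lytic buffer, substrate and LgBiT protein, served as the KRAS G12D read-out. Compounds, serially diluted 3-fold over 10 points from 0.3 mM DMSO stock, were on cells for 24 h; percent inhibition normalized to cells given 0.1% DMSO only.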

KRAS G12V = target: T2, KRAS G12V (Homo sapiens, UniProt P01116, G12V); test: KRAS G12V HiBit assay; settings: SW620-KRAS (G12V)-HiBit-KI cells, compound treatment for 24 hours
T2 construct: SW620-KRAS (G12V)-HiBit-KI cell (Pharmaron); host or cells: SW620-KRAS (G12V)-HiBit-KI cells (HiBiT knock-in at the endogenous KRAS locus)
T2 sequence (P01116 1-188 isoform P01116-2 G12V): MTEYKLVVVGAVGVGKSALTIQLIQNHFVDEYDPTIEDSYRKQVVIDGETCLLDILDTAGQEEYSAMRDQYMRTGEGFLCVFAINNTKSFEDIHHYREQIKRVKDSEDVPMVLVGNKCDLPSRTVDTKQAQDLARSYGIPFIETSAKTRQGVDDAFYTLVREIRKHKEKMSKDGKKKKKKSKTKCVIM
Summary of the method: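 Luminescence from lytic Nano-Glo HiBiT detection with LgBiT read KRAS G12V levels after 24 h compound exposure. Dilutions were 10-point, 3-fold, from a 0.3 mM DMSO stock. Degradation activity was normalised to cells given 0.1% DMSO alone.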

KRAS = target: T3, KRAS (Homo sapiens, UniProt P01116); test: KRASamp MSD assay; settings: KE39 (KRAS amplified) cells, treated with test compounds for 24 hr, MSD readout of KRAS degradation
T3 construct: endogenous in cells; host or cells: KE39 (KRAS amplified) cells
T3 sequence (P01116 1-188 isoform P01116-2): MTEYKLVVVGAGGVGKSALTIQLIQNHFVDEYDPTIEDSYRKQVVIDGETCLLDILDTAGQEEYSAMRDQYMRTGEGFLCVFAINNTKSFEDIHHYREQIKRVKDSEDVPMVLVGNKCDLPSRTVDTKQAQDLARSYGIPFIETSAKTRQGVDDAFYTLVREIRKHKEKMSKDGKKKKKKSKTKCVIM
Summary of the method: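 Degradation DC50 derived by curve fitting, with KRAS levels quantified by MSD electrochemiluminescence (capture/detection antibodies, recombinant WT KRAS standard). Lysates prepared from KE39 cells (KRAS amplified) exposed to test compounds for 24 hr.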

Row | SMILES | DC50 (KRAS G12D) | DC50 (KRAS G12V; numeric bounds) | DC50 (KRAS) | DC50 (KRAS G12V; class symbols)
1 | Cn1c(=O)n(C2CCC(=O)NC2=O)c2ccc(N3CCC(CN4CCN(C(=O)OC[C@@H]5CC[C@]6(COc7nc(N8CCC[C@@](C)(O)C8)c8cnc(-c9cc(O)cc%10ccc(F)cc9%10)c(F)c8n7)CCCN56)CC4)CC3)cc21 (stereo partly drawn) [Compound 445, ((3S,7aS)-7a-(((8-fluoro-7-(7-fluoro-3-hydroxynaphthalen-1-yl)-4-((R)-3-hydroxy-3-methylpiperidin-1-yl)pyrido[4,3-d]pyrimidin-2-yl)oxy)methyl)hexahydro-1H-pyrrolizin-3-yl)methyl 4-((1-(1-(2,6-dioxopiperidin-3-yl)-3-methyl-2-oxo-2,3-dihydro-1H-benzo[d]imidazol-5-yl)piperidin-4-yl)methyl)piperazine-1-carboxylate] | < 100 nM |  | < 1 nM | < 10 nM
2 | Cn1c(=O)n(C2CCC(=O)NC2=O)c2ccc(C3CCN(CC4(F)CCN(C(=O)OC[C@@H]5CC[C@]6(COc7nc(N8CCC[C@@](C)(O)C8)c8cnc(-c9cc(O)cc%10ccc(F)cc9%10)c(F)c8n7)CCCN56)CC4)CC3)cc21 (stereo partly drawn) [Compound 446, ((3S,7aS)-7a-(((8-fluoro-7-(7-fluoro-3-hydroxynaphthalen-1-yl)-4-((R)-3-hydroxy-3-methylpiperidin-1-yl)pyrido[4,3-d]pyrimidin-2-yl)oxy)methyl)hexahydro-1H-pyrrolizin-3-yl)methyl 4-((4-(1-(2,6-dioxopiperidin-3-yl)-3-methyl-2-oxo-2,3-dihydro-1H-benzo[d]imidazol-5-yl)piperidin-1-yl)methyl)-4-fluoropiperidine-1-carboxylate] | < 100 nM |  | < 1 nM | < 10 nM
3 | CCc1c(F)ccc2cc(O)cc(-c3ncc4c(N5CCC[C@@](C)(O)C5)nc(OC[C@@]56CCCN5[C@H](COC(=O)N5CC7(CCC(CN8CCC(c9ccc%10c(c9)n(C)c(=O)n%10C9CCC(=O)NC9=O)CC8)CC7)C5)CC6)nc4c3F)c12 (stereo partly drawn) [Compound 448, ((3S,7aS)-7a-(((7-(8-ethyl-7-fluoro-3-hydroxynaphthalen-1-yl)-8-fluoro-4-((R)-3-hydroxy-3-methylpiperidin-1-yl)pyrido[4,3-d]pyrimidin-2-yl)oxy)methyl)hexahydro-1H-pyrrolizin-3-yl)methyl 7-((4-(1-(2,6-dioxopiperidin-3-yl)-3-methyl-2-oxo-2,3-dihydro-1H-benzo[d]imidazol-5-yl)piperidin-1-yl)methyl)-2-azaspiro[3.5]nonane-2-carboxylate] | < 100 nM |  | < 1 nM | < 10 nM
4 | CCc1c(F)ccc2cc(O)cc(-c3ncc4c(N5CCC[C@@](C)(O)C5)nc(OC[C@@]56CCCN5[C@H](COC(=O)N5CC7(CCN(CC8CCN(c9ccc%10c(c9)n(C)c(=O)n%10C9CCC(=O)NC9=O)CC8)CC7)C5)CC6)nc4c3F)c12 (stereo partly drawn) [Compound 452, ((3S,7aS)-7a-(((7-(8-ethyl-7-fluoro-3-hydroxynaphthalen-1-yl)-8-fluoro-4-((R)-3-hydroxy-3-methylpiperidin-1-yl)pyrido[4,3-d]pyrimidin-2-yl)oxy)methyl)hexahydro-1H-pyrrolizin-3-yl)methyl 7-((1-(1-(2,6-dioxopiperidin-3-yl)-3-methyl-2-oxo-2,3-dihydro-1H-benzo[d]imidazol-5-yl)piperidin-4-yl)methyl)-2,7-diazaspiro[3.5]nonane-2-carboxylate] | < 100 nM |  | < 1 nM | < 10 nM
5 | CCc1c(F)ccc2cc(O)cc(-c3ncc4c(N5CCC[C@@](C)(O)C5)nc(OC[C@@]56CCCN5[C@H](COC(=O)N5CCC7(CCC(N8CCC(c9ccc%10c(c9)n(C)c(=O)n%10C9CCC(=O)NC9=O)CC8)C7)CC5)CC6)nc4c3F)c12 (stereo partly drawn) [Compound 455, ((3S,7aS)-7a-(((7-(8-ethyl-7-fluoro-3-hydroxynaphthalen-1-yl)-8-fluoro-4-((R)-3-hydroxy-3-methylpiperidin-1-yl)pyrido[4,3-d]pyrimidin-2-yl)oxy)methyl)hexahydro-1H-pyrrolizin-3-yl)methyl 2-(4-(1-(2,6-dioxopiperidin-3-yl)-3-methyl-2-oxo-2,3-dihydro-1H-benzo[d]imidazol-5-yl)piperidin-1-yl)-8-azaspiro[4.5]decane-8-carboxylate] | < 100 nM |  | < 1 nM | < 10 nM

Now from value to compound:

Row | DC50 (KRAS G12D) | DC50 (KRAS G12V; numeric bounds) | DC50 (KRAS) | DC50 (KRAS G12V; class symbols) | SMILES
6 | < 100 nM | > 78.5 nM | 1 to 10 nM |  | CCc1c(F)ccc2cc(O)cc(-c3ncc4c(N5CCC[C@@](C)(O)C5)nc(OC[C@]56CCCN5[C@H](CN5CCC(OCCCc7ccc8c(c7)n(C)c(=O)n8C7CCC(=O)NC7=O)CC5)CC6)nc4c3F)c12 (stereo partly drawn) [Compound 444, 3-(5-(3-((1-(((3S,7aR)-7a-(((7-(8-Ethyl-7-fluoro-3-hydroxynaphthalen-1-yl)-8-fluoro-4-((R)-3-hydroxy-3-methylpiperidin-1-yl)pyrido[4,3-d]pyrimidin-2-yl)oxy)methyl)hexahydro-1H-pyrrolizin-3-yl)methyl)piperidin-4-yl)oxy)propyl)-3-methyl-2-oxo-2,3-dihydro-1H-benzo[d]imidazol-1-yl) piperidine-2,6-dione]
7 | < 100 nM |  | < 1 nM | < 10 nM | Cn1c(=O)n(C2CCC(=O)NC2=O)c2cc(F)c(C3CCN(CC4CCN(C(=O)OC[C@@H]5CC[C@]6(COc7nc(N8CCC[C@@](C)(O)C8)c8cnc(-c9cc(O)cc%10ccc(F)cc9%10)c(F)c8n7)CCCN56)CC4)CC3)cc21 (stereo partly drawn) [Compound 447, ((3S,7aS)-7a-(((8-fluoro-7-(7-fluoro-3-hydroxynaphthalen-1-yl)-4-((R)-3-hydroxy-3-methylpiperidin-1-yl)pyrido[4,3-d]pyrimidin-2-yl)oxy)methyl)hexahydro-1H-pyrrolizin-3-yl)methyl 4-((4-(1-(2,6-dioxopiperidin-3-yl)-6-fluoro-3-methyl-2-oxo-2,3-dihydro-1H-benzo[d]imidazol-5-yl)piperidin-1-yl)methyl)piperidine-1-carboxylate]
8 | < 100 nM |  | < 1 nM | < 10 nM | CCc1c(F)ccc2cc(O)cc(-c3ncc4c(N5CCC[C@@](C)(O)C5)nc(OC[C@@]56CCCN5[C@H](COC(=O)Nc5ccc(CN7CCC(c8ccc9c(c8)n(C)c(=O)n9C8CCC(=O)NC8=O)CC7)cc5)CC6)nc4c3F)c12 (stereo partly drawn) [Compound 450, ((3S,7aS)-7a-(((7-(8-ethyl-7-fluoro-3-hydroxynaphthalen-1-yl)-8-fluoro-4-((R)-3-hydroxy-3-methylpiperidin-1-yl)pyrido[4,3-d]pyrimidin-2-yl)oxy)methyl)hexahydro-1H-pyrrolizin-3-yl)methyl (4-((4-(1-(2,6-dioxopiperidin-3-yl)-3-methyl-2-oxo-2,3-dihydro-1H-benzo[d]imidazol-5-yl)piperidin-1-yl)methyl)phenyl)carbamate]
9 | < 100 nM |  | < 1 nM | < 10 nM | CCc1c(F)ccc2cc(O)cc(-c3ncc4c(N5CCC[C@@](C)(O)C5)nc(OC[C@@]56CCCN5[C@H](COC(=O)Nc5ccc(N7CCC(c8ccc9c(c8)n(C)c(=O)n9C8CCC(=O)NC8=O)CC7)cc5)CC6)nc4c3F)c12 (stereo partly drawn) [Compound 451, ((3S,7aS)-7a-(((7-(8-ethyl-7-fluoro-3-hydroxynaphthalen-1-yl)-8-fluoro-4-((R)-3-hydroxy-3-methylpiperidin-1-yl)pyrido[4,3-d]pyrimidin-2-yl)oxy)methyl)hexahydro-1H-pyrrolizin-3-yl)methyl (4-(4-(1-(2,6-dioxopiperidin-3-yl)-3-methyl-2-oxo-2,3-dihydro-1H-benzo[d]imidazol-5-yl)piperidin-1-yl)phenyl)carbamate]
10 | < 100 nM |  | < 1 nM | < 10 nM | CCc1c(F)ccc2cc(O)cc(-c3ncc4c(N5CCC[C@@](C)(O)C5)nc(OC[C@@]56CCCN5[C@H](COC(=O)N5CC7(CCN(CC#Cc8ccc9c(c8)n(C)c(=O)n9C8CCC(=O)NC8=O)CC7)C5)CC6)nc4c3F)c12 (stereo partly drawn) [Compound 453, ((3S,7aS)-7a-(((7-(8-Ethyl-7-fluoro-3-hydroxynaphthalen-1-yl)-8-fluoro-4-((R)-3-hydroxy-3-methylpiperidin-1-yl)pyrido[4,3-d]pyrimidin-2-yl)oxy)methyl)hexahydro-1H-pyrrolizin-3-yl)methyl 7-(3-(1-(2,6-dioxopiperidin-3-yl)-3-methyl-2-oxo-2,3-dihydro-1H-benzo[d]imidazol-5-yl)prop-2-yn-1-yl)-2,7-diazaspiro[3.5]nonane-2-carboxylate]
11 | < 100 nM |  | < 1 nM | < 10 nM | C#Cc1c(F)ccc2cc(O)cc(-c3ncc4c(N5CCC[C@@](C)(O)C5)nc(OC[C@@]56CCCN5[C@H](COC(=O)N5CCC7(CCC(CN8CCC(c9ccc%10c(c9)n(C)c(=O)n%10C9CCC(=O)NC9=O)CC8)CC7)C5)CC6)nc4c3F)c12 (stereo partly drawn) [Compound 454]
